Measured values taken from US10336701B2, “Pyridin-2-one derivatives of formula (II) useful as EP3 receptor antagonists” (Janssen Pharmaceutica NV, priority 2017, dated 2019).

Columns and labels:
EP3 receptor [1] = target: T1, EP3 receptor (Homo sapiens, UniProt P43115); test: CHO cell cAMP assay (forskolin and sulprostone stimulated, HTRF); assay type: cell-based; settings: CHO cells; sulprostone 700 nM (EC80) and FSK 2 μM (EC70), 37° C. for 30 minutes; read-out: CHO_cAMP IC50
T1 construct: purchased Millipore HTS092M
T1 sequence (P43115 1-390): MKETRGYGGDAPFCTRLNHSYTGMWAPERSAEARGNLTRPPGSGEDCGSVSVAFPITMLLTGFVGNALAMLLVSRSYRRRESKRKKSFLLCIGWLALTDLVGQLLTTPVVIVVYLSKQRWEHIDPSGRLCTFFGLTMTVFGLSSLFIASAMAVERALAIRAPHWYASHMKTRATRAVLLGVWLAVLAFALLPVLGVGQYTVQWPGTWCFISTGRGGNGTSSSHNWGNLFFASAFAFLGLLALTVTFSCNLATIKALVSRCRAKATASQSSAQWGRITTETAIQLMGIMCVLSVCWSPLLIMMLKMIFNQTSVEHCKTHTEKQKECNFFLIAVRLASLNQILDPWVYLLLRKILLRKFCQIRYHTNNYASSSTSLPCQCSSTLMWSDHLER
Description: For detection, a homogeneous competitive immunoassay (Time Resolved Fluorescence Energy Transfer (hTR-FRET)) was used.
Cells (6K cells per well) were plated in Poly-D-Lysine coated plates the day before the assay was to be run and were incubated at 37° C. […] At the start of the assay the buffer was removed from the cells and replaced with buffer containing test compound(s). Sulprostone at an EC80 dose (700 nM) and FSK at an EC70 dose (2 μM) were added to initiate the reaction (37° C. for 30 minutes).
FSK increases cAMP production and sulprostone decreases cAMP production produced by FSK. In this assay, EP3 antagonists will increase the cAMP to the level of cAMP generated by FSK alone.
Approximately one hour later the plates were read on an Envision (Perkin Elmer) in HTRF mode.
NSP, NSN, NSsample were converted to nM cAMP using the following equation: […]
IC50 values were determined from a […] (Hill equation) of a single 11-point compound dosing.

EP3 receptor [2] = target: T1, EP3 receptor; test: [3H]-PGE2 binding assay (EP3 competition binding); settings: read-out: [3H]-PGE2 Binding Ki
Description: EP3 competition binding was determined using the following materials and experimental conditions:
Beads=Perkin Elmer RPNQ0001
EP3 membrane=Millipore HTS092M
Membrane concentration=2 μg/well
Beads concentration=0.25 mg/well
[3H]-PGE2=2 nM; DMSO—0.1%
Binding buffer=50 mM Tris, 10 mM MgCl2, 1 mM • EDTA, PH 7.4.
The binding buffer was removed from refrigeration (@ 4° C.) and allowed to warm to room temperature. Test compound (@ stock concentration of […] in DMSO) was serial dilutes (1:3) with 100% DMSO using Echo plate. Diluted test compound (30 nL) was dispensed to the 384-well assay plate (using Echo 550 Labcyte System). To each well was then added assay buffer (5 μl) and each well was spun. Beads were weighed out, dissolved in assay buffer to a concentration of 0.25 mg/15 μl. Original membrane was diluted with assay buffer to a concentration of 2 μg/5 μl. […] To each test well were then added diluted [3H]-PGE2 (5 μl), diluted membrane (5 μl), and dissolved beads (15 μl). The plate was equilibrated at room temperature on a plate shaker for 2 hours and then read with a TOPCOUNT scintillation plate reader. Results were analyzed using a Prism program with non-linear regression, one-site fit for Ki.

SMILES: CCn1ncc2c(F)cc(-c3ccc(C4CN(S(=O)(=O)C(C)C)C4)c(=O)[nH]3)cc21 [compound 214, 6-(1-ethyl-4-fluoro-1H-indazol-6-yl)-3-(1-(isopropylsulfonyl)azetidin-3-yl)pyridin-2(1H)-one]
- IC50 (EP3 receptor [1]): > 20000 nM
- Ki (EP3 receptor [2]): > 10000 nM

SMILES: COc1ccc2cc(-c3ccc(C(C(=O)NCCN(C)C)C(C)C)c(=O)[nH]3)ccc2c1 (stereo not shown) [compound 241]
- IC50 (EP3 receptor [1]): 9630 nM
- Ki (EP3 receptor [2]): 637 nM

SMILES: CCN1CCOc2c(F)cc(-c3ccc(C(CN4CCS(=O)(=O)CC4)C(C)C)c(=O)[nH]3)cc21 (stereo not shown) [Compound #129, 4-{2-[6-(4-ethyl-8-fluoro-2,3-dihydro-1,4-benzoxazin-6-yl)-2-oxo-1H-pyridin-3-yl]-3-methylbutyl}-1,4-thiomorpholine-1,1-dione]
- IC50 (EP3 receptor [1]): 149 nM
- Ki (EP3 receptor [2]): 6 nM

SMILES: CC(C)C1(c2ccc(-c3ccc4cccc(F)c4c3)[nH]c2=O)C(=O)Nc2nccn21 (stereo not shown) [compound 155, 3-(6-(8-fluoronaphthalen-2-yl)-2-oxo-1,2-dihydropyridin-3-yl)-3-isopropyl-1H-imidazo[1,2-a]imidazol-2(3H)-one]
- IC50 (EP3 receptor [1]): 20 nM
- Ki (EP3 receptor [2]): 5 nM

SMILES: O=C1NC(=O)/C(=C/C(c2ccc(-c3ccc4cccc(F)c4c3)[nH]c2=O)C2CCCC2)O1 (stereo not shown) [compound 92, (Z)-5-(2-cyclopentyl-2-(6-(8-fluoronaphthalen-2-yl)-2-oxo-1,2-dihydropyridin-3-yl)ethylidene)oxazolidine-2,4-dione]
- IC50 (EP3 receptor [1]): 7 nM
- Ki (EP3 receptor [2]): 9 nM

SMILES: NC(=O)C1(c2ccc(-c3ccc4ccccc4c3)[nH]c2=O)CC=NN1 (stereo not shown) [compound 247, 5-(6-(naphthalen-2-yl)-2-oxo-1,2-dihydropyridin-3-yl)-4,5-dihydro-1H-pyrazole-5-carboxamide]
- IC50 (EP3 receptor [1]): 2400 nM
- Ki (EP3 receptor [2]): 771 nM

SMILES: CC(C)C(/C=C1\OC(=O)NC1=O)c1ccc(-c2ccc3c(ccn3C)c2)[nH]c1=O (stereo not shown) [compound 118, (Z)-5-(3-methyl-2-(6-(1-methyl-1H-indol-5-yl)-2-oxo-1,2-dihydropyridin-3-yl)butylidene)oxazolidine-2,4-dione]
- IC50 (EP3 receptor [1]): 131 nM
- Ki (EP3 receptor [2]): 44 nM

SMILES: CCn1nc(C)c2ccc(-c3ccc(C(C=C4OC(=O)NC4=O)(CC)CC)c(=O)[nH]3)cc21 [compound 34, 5-(2-ethyl-2-(6-(1-ethyl-3-methyl-1H-indazol-6-yl)-2-oxo-1,2-dihydropyridin-3-yl)butylidene)oxazo-lidine-2,4-dione]
- IC50 (EP3 receptor [1]): 17600 nM

SMILES: CCn1ncc2c(F)cc(-c3ccc(C4CC5CN(S(=O)(=O)C(C)C)CC5C4)c(=O)[nH]3)cc21 (stereo not shown) [compound 205, 6-(1-ethyl-4-fluoro-1H-indazol-6-yl)-3-(2-(isopropylsulfonyl)-octahydrocyclopenta[c]pyrrol-5-yl)pyridin-2(1H)-one]
- Ki (EP3 receptor [2]): 51 nM

SMILES: CCn1ncc2c(F)cc(-c3ccc(C(CC)(CC)Cc4ncco4)c(=O)[nH]3)cc21 [Compound #41, 6-(1-ethyl-4-fluoro-1H-indazol-6-yl)-3-(3-(oxazol-2-ylmethyl)pentan-3-yl)pyridin-2(1H)-one]
- Ki (EP3 receptor [2]): 2 nM

SMILES: CCn1ncc2c(F)cc(-c3ccc([C@@]45CCC[C@@H](C4)C(=O)O5)c(=O)[nH]3)cc21 (racemic) [compound 299]
- Ki (EP3 receptor [2]): 29 nM

SMILES: CCn1ncc2c(F)cc(-c3ccc(C(CC)(CC)c4nnc(N)o4)c(=O)[nH]3)cc21 [Compound #51, 3-(3-(5-amino-1,3,4-oxadiazol-2-yl)pentan-3-yl)-6-(1-ethyl-4-fluoro-1H-indazol-6-yl)pyridin-2(1H)-one]
- Ki (EP3 receptor [2]): 2060 nM

SMILES: CCN1CCOc2c(F)cc(-c3ccc(C(/C=C4\CCNC4=O)(CC)CC)c(=O)[nH]3)cc21 [compound 25, (E)-6-(4-ethyl-8-fluoro-3,4-dihydro-2H-benzo[b][1,4]oxazin-6-yl)-3-(3-((2-oxopyrrolidin-3-ylidene)methyl)pentan-3-yl)pyridin-2(1H)-one]
- Ki (EP3 receptor [2]): > 10000 nM

SMILES: CCn1ncc2cc(C)c(-c3ccc(C(/C=C4/OC(=O)NC4=O)(CC)CC)c(=O)[nH]3)cc21 [compound 43, 5-(2-ethyl-2-(6-(1-ethyl-5-methyl-1H-indazol-6-yl)-2-oxo-1,2-dihydropyridin-3-yl)butylidene)oxazolidine-2,4-dione]
- IC50 (EP3 receptor [1]): > 20000 nM

SMILES: CCn1ncc2c(F)cc(-c3ccc(C(CC)(CC)c4nnc(N)s4)c(=O)[nH]3)cc21 [Compound #52, 3-(3-(5-amino-1,3,4-thiadiazol-2-yl)pentan-3-yl)-6-(1-ethyl-4-fluoro-1H-indazol-6-yl)pyridin-2(1H)-one]
- Ki (EP3 receptor [2]): 19 nM

SMILES: CCn1ncc2c(F)cc(-c3ccc(C(CC)(CC)Cc4nnc[nH]4)c(=O)[nH]3)cc21 [compound 15, 3-(3-((4H-1,2,4-triazol-3-yl)methyl)pentan-3-yl)-6-(1-ethyl-4-fluoro-1H-indazol-6-yl)pyridin-2(1H)-one]
- Ki (EP3 receptor [2]): 7 nM

SMILES: CCn1ncc2c(F)cc(-c3ccc(C(CC4CCC(=O)N4)C(C)C)c(=O)[nH]3)cc21 (stereo not shown) [compound 151, 6-(1-ethyl-4-fluoro-1H-indazol-6-yl)-3-(3-methyl-1-(5-oxopyrrolidin-2-yl)butan-2-yl)pyridin-2(1H)-one]
- Ki (EP3 receptor [2]): 11 nM

SMILES: CCn1ncc2c(F)cc(-c3ccc(C(CC)(CC)c4nnc(N(C)C)s4)c(=O)[nH]3)cc21 [Compound #48, 3-(3-(5-(dimethylamino)-1,3,4-thiadiazol-2-yl)pentan-3-yl)-6-(1-ethyl-4-fluoro-1H-indazol-6-yl)pyridin-2(1H)-one]
- Ki (EP3 receptor [2]): 2 nM

SMILES: CCC(CC)(c1ncc[nH]1)c1ccc(-c2ccc3cc(F)cc(F)c3c2)[nH]c1=O [compound 50, 3-(3-(1H-imidazol-2-yl)pentan-3-yl)-6-(6,8-difluoronaphthalen-2-yl)pyridin-2(1H)-one]
- Ki (EP3 receptor [2]): 1080 nM

SMILES: CCn1ncc2c(F)cc(-c3[nH]c(=O)c(C(CC)(CC)c4nnc[nH]4)cc3F)cc21 [compound 36, 3-(3-(4H-1,2,4-triazol-3-yl)pentan-3-yl)-6-(1-ethyl-4-fluoro-1H-indazol-6-yl)-5-fluoropyridin-2(1H)-one]
- Ki (EP3 receptor [2]): 195 nM

SMILES: CCc1nnc(C(CC)(CC)c2ccc(-c3cc(F)c4cnn(CC)c4c3)[nH]c2=O)o1 [Compound #53, 3-(3-(5-ethyl-1,3,4-oxadiazol-2-yl)pentan-3-yl)-6-(1-ethyl-4-fluoro-1H-indazol-6-yl)pyridin-2(1H)-one]
- Ki (EP3 receptor [2]): 6 nM

SMILES: CCn1ncc2c(F)cc(-c3ccc(C(CC4(C)CCNC4=O)C(C)C)c(=O)[nH]3)cc21 (stereo not shown) [compound 146, 6-(1-ethyl-4-fluoro-1H-indazol-6-yl)-3-(3-methyl-1-(3-methyl-2-oxopyrrolidin-3-yl)butan-2-yl)pyridin-2(1H)-one]
- Ki (EP3 receptor [2]): 6 nM

SMILES: CCC(/C=C1/OC(=O)NC1=O)(CC)c1ccc(-c2ccc3c(F)cc(F)cc3c2)[nH]c1=O [compound 10, (E)-5-(2-(6-(5,7-difluoronaphthalen-2-yl)-2-oxo-1,2-dihydropyridin-3-yl)-2-ethylbutylidene)oxazolidine-2,4-dione]
- Ki (EP3 receptor [2]): 28 nM

SMILES: CCC(CC)(Cc1nnc[nH]1)c1ccc(-c2ccc3cc(F)cc(F)c3c2)[nH]c1=O [compound 279, 3-(3-((4H-1,2,4-triazol-3-yl)methyl)pentan-3-yl)-6-(6,8-difluoronaphthalen-2-yl)pyridin-2(3H)-one]
- Ki (EP3 receptor [2]): 60 nM

SMILES: CCn1ncc2c(F)cc(-c3ccc(C4CCC5(CC4)CCN(S(=O)(=O)C(C)C)CC5)c(=O)[nH]3)cc21 [compound 204, 6-(1-ethyl-4-fluoroindazol-6-yl)-3-[3-(propane-2-sulfonyl)-3-azaspiro[5.5]undecan-9-yl]-1H-pyridin-2-one]
- Ki (EP3 receptor [2]): 12 nM

SMILES: CCN1CCOc2c(F)cc(-c3ccc(C(CC)(CC)CC4CCNC4=O)c(=O)[nH]3)cc21 (stereo not shown) [compound 17, 6-(4-ethyl-8-fluoro-3,4-dihydro-2H-benzo[b][1,4]oxazin-6-yl)-3-(3-((2-oxopyrrolidin-3-yl)methyl)pentan-3-yl)pyridin-2(1H)-one]
- Ki (EP3 receptor [2]): 14 nM

SMILES: CCn1ncc2c(F)cc(-c3[nH]c(=O)c(C(CC)(CC)c4ncco4)cc3F)cc21 [Compound #37, 6-(1-ethyl-4-fluoro-1H-indazol-6-yl)-5-fluoro-3-(3-(oxazol-2-yl)pentan-3-yl)pyridin-2(1H)-one]
- Ki (EP3 receptor [2]): 24 nM
